Experimental data reported in ChEMBL document CHEMBL1201862, “PubChem BioAssay data set” (2004).
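Cells were grown in 96-well plates and exposed to each compound for 48 hours at five concentrations; endpoints were interpolated linearly between bracketing concentrations, or set to the highest concentration if not reached. Abbreviation: GI50, concentration required for 50% inhibition of growth.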 Calls of active or inactive are those of the source. No stated cut-off is given here; in the data, active = GI50 up to about 1.1 µM and inactive = higher. Square brackets hold non-standard residues; d marks the D form. Peptide text beside a SMILES is read from it. * marks the point of attachment. AllylGly = C=CC[CH](N)C(=O)O; Boc = CC(C)(C)OC(=O)*; OtBu = CC(C)(C)O*

Columns and labels:
Test in all cases: inhibition of tumour cell growth, NCI panel, 48 h
HL-60 = test system: HL-60
CAKI-1 = test system: CAKI-1
TK-10 = test system: TK-10
MOLT-4 = test system: MOLT-4
Malme-3M = test system: Malme-3M
SW-620 = test system: SW-620
786-0 = test system: 786-0
SN12C = test system: SN12C
COLO 205 = test system: COLO 205
SK-MEL-28 = test system: SK-MEL-28
RXF 393 = test system: RXF 393
SF-539 = test system: SF-539
PC-3 = test system: PC-3
K562 = test system: K562
SNB-75 = test system: SNB-75
UACC-62 = test system: UACC-62
UACC-257 = test system: UACC-257
M14 = test system: M14
HOP-62 = test system: HOP-62
LOX IMVI = test system: LOX IMVI

Measured: GI50

COc1cc(S(=O)(=O)Nc2nc(-c3ccc(/N=C/c4cccs4)cc3)cs2)ccc1Cl
inactive: HL-60 33.9 µM | CAKI-1 > 100 µM | TK-10 > 100 µM | MOLT-4 27.5 µM | Malme-3M > 100 µM | SW-620 35.5 µM | 786-0 > 100 µM | SN12C 28.8 µM | COLO 205 > 100 µM | SK-MEL-28 > 100 µM | RXF 393 20.4 µM | SF-539 34 µM | PC-3 76.2 µM | K562 33.5 µM | SNB-75 33.8 µM | UACC-62 19.8 µM | UACC-257 > 100 µM | M14 > 100 µM | HOP-62 > 100 µM | LOX IMVI 31 µM

COC(=O)C1=C(OC(=O)/C=C/c2ccccc2)C(C(=O)OC)[C@@]2(O)[C@@H](C(=O)OC)[C@H](C)C[C@@H]1[C@@H]2C(=O)OC (some centres undefined)
inactive: HL-60 39.2 µM | CAKI-1 15.7 µM | TK-10 34.4 µM | MOLT-4 > 100 µM | Malme-3M 15.8 µM | SW-620 28.3 µM | 786-0 17.1 µM | SN12C 13.9 µM | COLO 205 28.8 µM | SK-MEL-28 28.8 µM | RXF 393 4.05 µM | SF-539 19.8 µM | PC-3 25.5 µM | K562 > 100 µM | SNB-75 19.4 µM | UACC-62 12.6 µM | UACC-257 20.1 µM | M14 25.5 µM | HOP-62 19 µM | LOX IMVI 22.1 µM

c1csc(-c2cscc2-c2ccsc2)c1
inactive: HL-60 30.5 µM | CAKI-1 > 95.3 µM | TK-10 > 100 µM | MOLT-4 26.2 µM | Malme-3M 20.9 µM | SW-620 62.2 µM | 786-0 > 63.1 µM | SN12C > 86.1 µM | COLO 205 > 100 µM | SK-MEL-28 > 100 µM | RXF 393 20.9 µM | SF-539 > 53.2 µM | PC-3 > 43.8 µM | K562 31.6 µM | SNB-75 > 52.1 µM | UACC-62 70.3 µM | UACC-257 > 94.4 µM | M14 54.1 µM | HOP-62 42.3 µM | LOX IMVI 41.1 µM

C=CCC(NC(=O)C(CC(=O)OC(C)(C)C)NC(=O)OC(C)(C)C)C(=O)OC (centres undefined) (Boc-Asp(OtBu)-[AllylGly]-OMe; configuration not given here)
inactive: HL-60 30.1 µM | CAKI-1 > 100 µM | TK-10 > 100 µM | MOLT-4 > 49.9 µM | Malme-3M 1.84 µM | SW-620 56.1 µM | 786-0 > 100 µM | SN12C > 67 µM | COLO 205 21.1 µM | SK-MEL-28 47.4 µM | RXF 393 99.3 µM | SF-539 > 100 µM | PC-3 > 100 µM | K562 47.8 µM | SNB-75 97.9 µM | UACC-62 48.3 µM | UACC-257 24 µM | M14 20.2 µM | HOP-62 > 64.1 µM | LOX IMVI 20.9 µM

COc1cc(OC)c2c(c1OC)OCC(Cc1ccc(O)cc1)C2=O (centres undefined)
inactive: HL-60 11.3 µM | CAKI-1 > 25 µM | TK-10 > 25 µM | MOLT-4 > 25 µM | Malme-3M > 25 µM | SW-620 > 25 µM | 786-0 > 25 µM | SN12C > 25 µM | COLO 205 > 25 µM | SK-MEL-28 > 25 µM | RXF 393 20.3 µM | SF-539 > 25 µM | PC-3 > 25 µM | K562 > 25 µM | SNB-75 > 25 µM | UACC-62 > 25 µM | UACC-257 > 25 µM | M14 > 25 µM | HOP-62 > 25 µM | LOX IMVI > 25 µM

CN1CCN(c2ccc3nc(C4=C(O)C(=O)c5c(nc(CO)n5C)C4=O)[nH]c3n2)CC1
inactive: HL-60 > 100 µM | CAKI-1 > 100 µM | MOLT-4 56.2 µM | Malme-3M > 100 µM | SW-620 > 100 µM | 786-0 > 100 µM | SN12C > 100 µM | COLO 205 > 100 µM | SK-MEL-28 > 100 µM | RXF 393 15.8 µM | SF-539 20.9 µM | PC-3 > 100 µM | K562 59.8 µM | SNB-75 24.6 µM | UACC-62 74.3 µM | UACC-257 > 100 µM | M14 > 100 µM | HOP-62 > 100 µM | LOX IMVI > 100 µM

Cc1ccc(/N=N/c2c(O)ccc3cc(S(=O)(=O)O)cc(S(=O)(=O)O)c23)cc1
inactive: HL-60 > 100 µM | CAKI-1 > 100 µM | TK-10 > 100 µM | MOLT-4 > 100 µM | Malme-3M > 100 µM | SW-620 > 100 µM | 786-0 > 100 µM | SN12C > 100 µM | COLO 205 > 100 µM | SK-MEL-28 > 100 µM | RXF 393 > 100 µM | SF-539 > 100 µM | PC-3 > 100 µM | K562 > 100 µM | SNB-75 > 100 µM | UACC-62 > 100 µM | UACC-257 > 100 µM | M14 > 100 µM | HOP-62 > 100 µM

O=C(O)CSc1n[nH]c(=O)[nH]c1=O
inactive: HL-60 > 100 µM | CAKI-1 > 100 µM | MOLT-4 > 100 µM | Malme-3M > 100 µM | SW-620 > 100 µM | 786-0 > 100 µM | SN12C > 100 µM | COLO 205 > 100 µM | SK-MEL-28 > 100 µM | RXF 393 > 100 µM | SF-539 > 100 µM | PC-3 > 100 µM | K562 > 100 µM | SNB-75 > 100 µM | UACC-62 > 100 µM | M14 > 100 µM | HOP-62 > 100 µM | LOX IMVI > 100 µM

CCCCCCNC(=O)c1cc(NCc2cc(OC)ccc2OC)ccc1O
inactive: HL-60 14.4 µM | CAKI-1 27.2 µM | TK-10 42.6 µM | MOLT-4 25.7 µM | Malme-3M 22.5 µM | SW-620 30.7 µM | 786-0 27.9 µM | SN12C 20.6 µM | COLO 205 19 µM | SK-MEL-28 31.8 µM | RXF 393 18.7 µM | SF-539 18.5 µM | PC-3 20.2 µM | K562 14.8 µM | SNB-75 26.1 µM | UACC-62 15 µM | UACC-257 16.9 µM | M14 18.7 µM | LOX IMVI 16.6 µM

C[C@@H]1S[C@H](c2c(F)cccc2Cl)n2c1nc1ccccc12
inactive: CAKI-1 8.43 µM | TK-10 28.5 µM | MOLT-4 5.04 µM | Malme-3M 14.8 µM | SW-620 13.7 µM | 786-0 14.8 µM | SN12C 15.6 µM | COLO 205 11.2 µM | SK-MEL-28 13.7 µM | RXF 393 14.5 µM | SF-539 15 µM | PC-3 6.84 µM | K562 4.4 µM | SNB-75 16.5 µM | UACC-62 8.81 µM | UACC-257 14.1 µM | M14 15.2 µM | HOP-62 15.3 µM | LOX IMVI 12.5 µM
